Where two headings read alike, the source gives them in different places.
Assays:
pH Stability Test = assay type: physicochemical; details: 100 mg solid dissolved in 10 ml deionized water, pH meter; hydrochloride
Procedure: First, 100 mg of the X-form crystal solid of Examples 1 to 3, and the amorphous solid of Comparative Examples 1-6 were dissolved in 10 ml of deionized water respectively. Then, pH value of the resulting solutions was measured with a pH meter (Type No: Mettler Toledo MP 250). The measurement results are shown in Table 3, wherein the result of the amorphous and A-form crystals of Comparative Examples 4-9 was quoted from U.S. Pat. No. 7,803,942B2.

[1] = result quoted from U.S. Pat. No. 7,803,942B2; hydrochloride; cited from earlier work

| SMILES | pH (pH Stability Test) | pH [1] |
| --- | --- | --- |
| CN(C(=O)/C=C/c1ccoc1)[C@@H]1CC[C@@]2(O)[C@H]3Cc4ccc(O)c5c4[C@@]2(CCN3CC2CC2)[C@H]1O5.Cl (relative stereo) [Comparative Example 1, 17-cyclopropylmethyl-3,14β-dihydroxy-4,5α-epoxy-6β-[N-methyl-trans-3-(3-furyl)acrylamido]morphinan hydrochloride] | 4.4 |  |
| CN(C(=O)/C=C/c1ccoc1)[C@@H]1CC[C@@]2(O)[C@H]3Cc4ccc(O)c5c4[C@@]2(CCN3CC2CC2)[C@H]1O5.Cl (relative stereo) [Comparative Example 2, 17-cyclopropylmethyl-3,14β-dihydroxy-4,5α-epoxy-6β-[N-methyl-trans-3-(3-furyl)acrylamido]morphinan hydrochloride] | 2.6 |  |
| CN(C(=O)/C=C/c1ccoc1)[C@@H]1CC[C@@]2(O)[C@H]3Cc4ccc(O)c5c4[C@@]2(CCN3CC2CC2)[C@H]1O5.Cl (relative stereo) [Comparative Example 3, 17-cyclopropylmethyl-3,14β-dihydroxy-4,5α-epoxy-6β-[N-methyl-trans-3-(3-furyl)acrylamido]morphinan hydrochloride] | 3.7 |  |
| CN(C(=O)/C=C/c1ccoc1)[C@@H]1CC[C@@]2(O)[C@H]3Cc4ccc(O)c5c4[C@@]2(CCN3CC2CC2)[C@H]1O5.Cl (relative stereo) [Comparative Example 4, 17-cyclopropylmethyl-3,14β-dihydroxy-4,5α-epoxy-6β-[N-methyl-trans-3-(3-furyl)acrylamido]morphinan hydrochloride] |  | 3.7 |
| CN(C(=O)/C=C/c1ccoc1)[C@@H]1CC[C@@]2(O)[C@H]3Cc4ccc(O)c5c4[C@@]2(CCN3CC2CC2)[C@H]1O5.Cl (relative stereo) [Comparative Example 5, 17-cyclopropylmethyl-3,14β-dihydroxy-4,5α-epoxy-6β-[N-methyl-trans-3-(3-furyl)acrylamido]morphinan hydrochloride] |  | 4.7 |
| CN(C(=O)/C=C/c1ccoc1)[C@@H]1CC[C@@]2(O)[C@H]3Cc4ccc(O)c5c4[C@@]2(CCN3CC2CC2)[C@H]1O5.Cl (relative stereo) [Comparative Example 6, 17-cyclopropylmethyl-3,14β-dihydroxy-4,5α-epoxy-6β-[N-methyl-trans-3-(3-furyl)acrylamido]morphinan hydrochloride] |  | 3.5 |
| CN(C(=O)/C=C/c1ccoc1)[C@@H]1CC[C@@]2(O)[C@H]3Cc4ccc(O)c5c4[C@@]2(CCN3CC2CC2)[C@H]1O5.Cl (relative stereo) [Comparative Example 7, 17-cyclopropylmethyl-3,14β-dihydroxy-4,5α-epoxy-6β-[N-methyl-trans-3-(3-furyl)acrylamido]morphinan hydrochloride] |  | 5.8 |
| CN(C(=O)/C=C/c1ccoc1)[C@@H]1CC[C@@]2(O)[C@H]3Cc4ccc(O)c5c4[C@@]2(CCN3CC2CC2)[C@H]1O5.Cl (relative stereo) [Comparative Example 8, 17-cyclopropylmethyl-3,14β-dihydroxy-4,5α-epoxy-6β-[N-methyl-trans-3-(3-furyl)acrylamido]morphinan hydrochloride] |  | 5.4 |
| CN(C(=O)/C=C/c1ccoc1)[C@@H]1CC[C@@]2(O)[C@H]3Cc4ccc(O)c5c4[C@@]2(CCN3CC2CC2)[C@H]1O5.Cl (relative stereo) [Comparative Example 9, 17-cyclopropylmethyl-3,14β-dihydroxy-4,5α-epoxy-6β-[N-methyl-trans-3-(3-furyl)acrylamido]morphinan hydrochloride] |  | 5.6 |
| CN(C(=O)/C=C/c1ccoc1)[C@@H]1CC[C@@]2(O)[C@H]3Cc4ccc(O)c5c4[C@@]2(CCN3CC2CC2)[C@H]1O5.Cl (relative stereo) [Example 1, 17-cyclopropylmethyl-3,14β-dihydroxy-4,5α-epoxy-6β-[N-methyl-trans-3-(3-furyl)acrylamido]morphinan hydrochloride] | 3.5 |  |
| CN(C(=O)/C=C/c1ccoc1)[C@@H]1CC[C@@]2(O)[C@H]3Cc4ccc(O)c5c4[C@@]2(CCN3CC2CC2)[C@H]1O5.Cl (relative stereo) [Example 2, 17-cyclopropylmethyl-3,14β-dihydroxy-4,5α-epoxy-6β-[N-methyl-trans-3-(3-furyl)acrylamido]morphinan hydrochloride] | 3.6 |  |
| CN(C(=O)/C=C/c1ccoc1)[C@@H]1CC[C@@]2(O)[C@H]3Cc4ccc(O)c5c4[C@@]2(CCN3CC2CC2)[C@H]1O5.Cl (relative stereo) [Example 3, 17-cyclopropylmethyl-3,14β-dihydroxy-4,5α-epoxy-6β-[N-methyl-trans-3-(3-furyl)acrylamido]morphinan hydrochloride] | 3.6 |  |
